Legend:
Aβ1-42 fibrils [1] = molecular target: T1, Aβ1-42 fibrils (Homo sapiens, UniProt P05067); assay: Direct fluorescence titration on Aβ1-42 fibrils: Kd and Bmax; type: binding; settings: for Kd: direct assay on fibrils, mean ± SD of 3 experiments, read-out: Kd Aβ
T1 construct: Wild-type α-syn and Aβ1-42 were expressed; made in house; host or cells: Escherichia coli BL21(DE3)
Text: (§1) In view of the interesting properties of compounds 33–39, we decided to switch to azaindole structures and to study the impact of the position of the nitrogen atom in the 6-membered ring on binding to fibrils. At this step we measured, in addition to the Ki values, the direct binding of each compound to fibrils through the fluorescence in the fraction bound to fibrils, which allowed us to determine the affinity values (Kd, Table 1). […] We therefore prepared a fluorinated derivative of compound 43, i.e., 45.
(§2) Fresh solutions of each tested compound (2.5 mM in DMSO) were diluted in PBS pH 7.4 at concentrations ranging from 0.5 nM to 5 µM in the presence or absence of α-syn, Aβ1-42, or Tau fibrils (200 nM, 500 nM, or 200 nM, respectively) in a final volume of 2 mL. After 1 h incubation at room temperature, the binding of each compound to α-syn, Aβ1-42, or Tau fibrils was assessed by fluorescence measurements using the appropriate excitation/emission wavelengths (i.e., those yielding the highest fluorescence ratio between fibril-bound and free compound). For any given concentration of compound added to the fibrils, the concentrations of compound bound to the fibrils and free in solution were determined on the basis of the measured fluorescence. Since at each point of the titration: Fm = FB × B + FF × (T − B) where Fm is the measured fluorescence of the compound in the presence of fibrils at a given compound concentration T, FB is the specific molar fluorescence of the bound compound, FF is the specific molar fluorescence of the free compound, and B is the concentration of compound bound to the fibrils at any point of the titration. FF was determined by measuring the fluorescence of known compound concentrations in the absence of fibrils. FB was determined by measuring the maximum fluorescence of known compound concentrations upon saturation with α-syn, Aβ1-42, or Tau fibrils.
(§3) Therefore, at each point of the titration, the concentration of bound compound B could be determined and was B = (Fm − FF × T)/FB − FF. The B values thus determined versus the respective concentrations of free compound were analyzed by fitting to the Michaelis-Menten equation.

Aβ1-42 fibrils [2] = assay: as above; type: binding; settings: from Kd values
Text: as §1, §2, §3

α-syn fibrils [3] = molecular target: T2, α-syn fibrils (Homo sapiens, UniProt P37840); assay: Direct fluorescence titration on α-syn fibrils: Kd and Bmax; type: binding
T2 construct: made in house; host or cells: Escherichia coli BL21(DE3)
Text: as §1, §2, §3

Aβ1-42 fibrils [4] = molecular target: T1, Aβ1-42 fibrils; assay: Inhibition of thioflavin T binding to Aβ1-42 fibrils (fluorescence competition), Ki determination; settings: calculated from IC50, competition with ThT 500 nM, fibrils 500 nM, mean ± SD of 3 experiments; read-out: Ki Aβ
Method: (§4) Wild-type α-syn and Aβ1-42 were expressed in the Escherichia coli strain BL21(DE3) (Stratagene, La Jolla, CA, USA) and purified as described. […] For the Aβ1-42 peptide, the concentration was determined by a fluorometric method using the reactive compound fluorescamine (Sigma, San Jose, CA, USA) that reacts with primary amino groups to form a fluorescent product. The human Tau protein (isoform h2N4RTau) was expressed in the pET11d vector in the Escherichia coli strain BL21(DE3) (Stratagene, La Jolla, CA, USA) and purified as described.
(§5) For assembly into fibrils, α-syn was incubated in 50 mM Tris-HCl, pH 7.5, 150 mM KCl at 37 °C under continuous shaking for 4 days. Lyophilized Aβ1-42 was dissolved in 1,1,1,3,3,3-hexafluoro-2-propanol (HFIP) at a concentration of 0.2 mg/mL and incubated for 24 h at 37 °C to achieve complete solubilization. HFIP was evaporated under a nitrogen stream to obtain a dry film. To start assembly into fibrils, the dry peptide was resuspended in PBS pH 7.4, 10% (v/v) DMSO and incubated at 37 °C without shaking for 3 days. The Tau protein was assembled in fibrils in a PBS buffer containing 1 mM of DTT in the presence of 1/12 heparin (v/v) at 37 °C under shaking. […] Protein fibrils were systematically examined by transmission electron microscopy (TEM) in a Jeol 1400 transmission electron microscope following adsorption onto carbon-coated 200 mesh grids and negative staining with 1% uranyl acetate. The images were recorded with a Gatan Orius CCD camera (Gatan, Pleasanton, CA, USA). Finally, the percentage of α-syn or Aβ1-42 aggregated into fibrils was assessed by pelleting fibrils at 40,000× g for 20 min and by determining the concentration of soluble protein/peptide remaining in the supernatant.
(§6) The samples were incubated for 1 h at room temperature to achieve complete equilibration.

[5] = molecular target: T3, Tau fibrils (isoform h2N4RTau) (Homo sapiens, UniProt P10636); assay: Direct fluorescence titration on Tau fibrils: Kd and Bmax; type: binding
T3 construct: made in house; host or cells: Escherichia coli BL21(DE3), pET11d vector
Text: as §1, §2, §3

[6] = molecular target: T3, Tau fibrils (isoform h2N4RTau); assay: Inhibition of thioflavin T binding to Tau fibrils (fluorescence competition), Ki determination; settings: calculated from IC50, competition with ThT 500 nM, fibrils 200 nM, mean ± SD of 3 experiments
Method: as §4, §5, §6

α-syn fibrils [7] = molecular target: T2, α-syn fibrils; assay: Inhibition of thioflavin T binding to α-syn fibrils (fluorescence competition), Ki determination; settings: calculated from IC50, competition with ThT 500 nM, fibrils 200 nM, mean ± SD of 3 experiments
Method: as §4, §5, §6

[8] = Octanol–water partition coefficient at pH 7.4 (LogD); type: physicochemical; settings: pH 7.4, mean ± SD on three independent experiments
α-syn in MSA tissues = molecular target: α-syn in MSA tissues; set-up: method as in PMID 38352848; settings: cited from earlier work
[9] = direct assay on fibrils, mean ± SD of 3 experiments
[10] = density of binding sites, Scatchard analysis

T1 sequence (P05067 672-713): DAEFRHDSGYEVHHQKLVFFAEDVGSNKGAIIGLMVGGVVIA
T3 sequence (P10636 1-441 isoform P10636-8): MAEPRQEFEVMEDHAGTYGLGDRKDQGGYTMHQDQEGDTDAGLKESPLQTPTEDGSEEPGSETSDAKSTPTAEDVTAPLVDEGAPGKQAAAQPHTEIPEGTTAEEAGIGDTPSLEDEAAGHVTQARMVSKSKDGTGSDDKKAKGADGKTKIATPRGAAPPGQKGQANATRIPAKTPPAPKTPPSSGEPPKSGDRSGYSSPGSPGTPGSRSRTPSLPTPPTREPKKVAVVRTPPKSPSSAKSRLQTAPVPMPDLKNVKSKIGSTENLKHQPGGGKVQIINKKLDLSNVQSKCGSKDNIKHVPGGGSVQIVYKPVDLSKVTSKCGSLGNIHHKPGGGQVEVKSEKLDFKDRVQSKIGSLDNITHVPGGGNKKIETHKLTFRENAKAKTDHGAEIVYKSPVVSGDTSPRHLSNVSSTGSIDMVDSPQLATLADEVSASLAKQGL

SMILES	Kd (Aβ1-42 fibrils [1]) [nM]	reduction of affinity for Aβ versus α-syn and tau fibrils (Aβ1-42 fibrils [2]) [fold]	Kd (α-syn fibrils [3]; [9]) [nM]	Kd α-Syn (α-syn fibrils [3]; [9])	Ki (Aβ1-42 fibrils [4]) [nM]	Kd [5, 9] [nM]	Kd Tau [5, 9]	Ki [6] [nM]	Ki (α-syn fibrils [7]) [nM]	logD [8]	Aβ monomers per 1 compound bound (Aβ1-42 fibrils [1]; corresponding to Bmax) [Aβ monomers]	Bmax on Aβ fibrils (Aβ1-42 fibrils [1]; [10]) [nmol/µmol Aβ fibrils]	α-syn monomers per 1 compound bound (α-syn fibrils [3]; corresponding to Bmax)	Bmax on α-syn fibrils (α-syn fibrils [3]; [10]) [nmol/µmol α-syn fibrils]	tau monomers per 1 compound bound ([5]; corresponding to Bmax) [tau monomers]	Bmax on tau fibrils [5, 10] [nmol/µmol tau fibrils]	Kd (α-syn in MSA tissues) [nM]
CN(C)c1ccc(C#Cc2cc3cccnc3[nH]2)cc1 [Compound 43]	11.8 ± 3	20	0.53 ± 0.2	sub-nanomolar	24.4 ± 9	0.44 ± 0.1	sub-nanomolar	4.61 ± 0.2	4.7 ± 2								
CN(CCF)c1ccc(C#Cc2cc3cccnc3[nH]2)cc1 [Compound 45]	1.2 ± 1		2.4 ± 1			0.97 ± 0.4				2.59 ± 0.141	600	1.8 ± 0.6	7 α-syn monomers	141.1 ± 45	20	46.6 ± 5.0	
O=C1c2cn(-c3ccc(N4CC[C@@H]([18F])C4)nc3)nc2CN1c1cccnc1 [[^18F] ACI-12589]																	22 to 30

Reference: PMC12655733, “Design, Synthesis and Evaluation of the First 2-Alkynyl(aza)indole ^18F Probe Targeting α-Synuclein Aggregates” (Pharmaceuticals, 2025)
